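48-hour exposure; five concentrations; linearly interpolated endpoints. Here, GI50 denotes the concentration required for 50% inhibition of growth. At the TGI there is no net growth.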

Experimental findings from PubChem BioAssay (NCI) are described below.

Among the test systems are HOP-62 NSCLC; OVCAR-5 ovarian; ACHN renal; HT29 colon; SNB-19 CNS; M14 melanoma; UACC-257 melanoma; SF-539 CNS; MDA-MB-435.
Test in all cases: NCI-60 cell line screen, 48 h

`COC(=O)N/N=C(\C)c1sc(-c2nc(C)c(/C(C)=N/NC(=O)OC)s2)nc1C`: the TGI in the test on HOP-62 NSCLC, in the test with OVCAR-5 ovarian, with ACHN renal, in the test on HT29 colon, in the test with SNB-19 CNS and in the test on M14 melanoma was above 100 µM in each case. For the same molecule, the TGI in the test on UACC-257 melanoma and with SF-539 CNS was above 100 µM each time.
Turning to `O=[N+]([O-])c1ccc(/C=C/c2ccc(/C=C/c3ccc([N+](=O)[O-])cc3[N+](=O)[O-])cc2)c([N+](=O)[O-])c1`, the TGI in the test on HOP-62 NSCLC, in the test with OVCAR-5 ovarian, in the test with ACHN renal, in the test with HT29 colon, in the test with M14 melanoma and in the test with UACC-257 melanoma was above 100 µM throughout. In addition, the TGI with SF-539 CNS was above 100 µM.
Take `CN(C)c1ccc(/C=C2\CCc3ccccc3C2=O)cc1Br`: the TGI in the test on HOP-62 NSCLC, in the test on OVCAR-5 ovarian, in the test on ACHN renal, in the test on HT29 colon, in the test with SNB-19 CNS and in the test on M14 melanoma was above 100 µM each time. Further, the TGI in the test with UACC-257 melanoma and in the test with SF-539 CNS was above 100 µM throughout.
For the molecule `CNS(=O)(=O)NNS(=O)(=O)c1ccc(C)cc1`, the TGI in the test on HOP-62 NSCLC, with OVCAR-5 ovarian, in the test on ACHN renal, in the test with HT29 colon, with SNB-19 CNS and in the test on M14 melanoma was above 100 µM throughout. Also, the TGI in the test on UACC-257 melanoma and with SF-539 CNS was above 100 µM each time.
As to `Nc1ccccc1C(=O)/C=C/c1ccccc1O`, the TGI was above 100 µM with HOP-62 NSCLC; above 100 µM with OVCAR-5 ovarian; above 100 µM in the test on HT29 colon; above 100 µM with SNB-19 CNS; above 100 µM in the test with M14 melanoma; 53 µM in the test on UACC-257 melanoma. Also, the TGI in the test on SF-539 CNS is above 100 µM.
With `CCN1CCN(CC(=O)Nc2nc3ccc(NCc4ccc(Br)cc4)cc3s2)CC1`, the GI50 in the test with MDA-MB-435 is 1690 nM; in the test with ACHN renal it was 2.03 µM; with SNB-19 CNS, 2600 nM; in the test with M14 melanoma it was 1720 nM; in the test on UACC-257 melanoma, 2.28 µM; with SF-539 CNS, 1.75 µM. For the same molecule, the TGI in the test with MDA-MB-435 turned out to be 3.23 µM; with ACHN renal, 4.4 µM; in the test on SNB-19 CNS, 6.93 µM; in the test on M14 melanoma, 3.63 µM; in the test with UACC-257 melanoma it was 5.14 µM; in the test with SF-539 CNS, 3.24 µM.
For the molecule `CN(C)CCNC(=O)c1cccc2c1nc(-c1cccnc1)c1ccccc12`, the TGI in the test on HOP-62 NSCLC amounted to 22.3 µM; with OVCAR-5 ovarian, 34 µM; with ACHN renal it was 14.4 µM; with HT29 colon it was 26.9 µM; in the test on SNB-19 CNS it was 36.8 µM; in the test with M14 melanoma it was 19.9 µM. In addition, the TGI with UACC-257 melanoma stood at 16.1 µM; in the test on SF-539 CNS it was 10.7 µM.
Turning to `CC1(C)CC(=O)C(C(=O)Nc2cccs2)=C(O)C1`, the TGI in the test with HOP-62 NSCLC, with OVCAR-5 ovarian, in the test with ACHN renal, in the test with HT29 colon, with SNB-19 CNS and with M14 melanoma was above 100 µM throughout. In addition, the TGI in the test on UACC-257 melanoma and in the test on SF-539 CNS was above 100 µM throughout.
`CCC12C=C(C(=O)OC)N3c4ccccc4C4CCN(CCC1)C2C43` (stereo not drawn): the TGI is 99.8 µM in the test on HOP-62 NSCLC; above 100 µM in the test on OVCAR-5 ovarian; above 100 µM in the test on ACHN renal; above 100 µM with HT29 colon; above 100 µM with SNB-19 CNS; above 100 µM in the test on M14 melanoma. Moreover, the TGI with UACC-257 melanoma and in the test with SF-539 CNS was above 100 µM each time.
As to `Cc1ccccc1NC(=O)CC(=O)NNCC(=O)Nc1nnc(-c2ccccc2)s1`, the TGI in the test with HOP-62 NSCLC, in the test with OVCAR-5 ovarian, with ACHN renal, with HT29 colon, in the test on SNB-19 CNS and in the test on M14 melanoma was above 100 µM each time. Moreover, the TGI in the test on UACC-257 melanoma and in the test with SF-539 CNS was above 100 µM in each case.
With `O=C(O)c1cn(C2CC2)c2cc(N3CCN(C(=O)N(c4ccccc4)c4nc(-c5ccccc5)cs4)CC3)c(F)cc2c1=O`, the GI50 with HOP-62 NSCLC is 0.462 µM; in the test with SNB-19 CNS, 416 nM; in the test with M14 melanoma, 437 nM. Besides, the values for the TGI in the test on HOP-62 NSCLC, in the test with SNB-19 CNS and with M14 melanoma were above 45.4 µM, above 100 µM and above 100 µM, respectively.
In the case of `CC(C)(C)C1CC[C@H]2c3c([nH]c4ccccc34)[C@H]3C(=O)N(c4ccc(F)cc4)C(=O)[C@H]3[C@H]2C1` (stereo partly drawn), the TGI came out at 30.8 µM in the test with HOP-62 NSCLC; 80 µM in the test with OVCAR-5 ovarian; 27.2 µM in the test on ACHN renal; 29.8 µM in the test on SNB-19 CNS; 38.4 µM in the test on M14 melanoma; 54.2 µM in the test with UACC-257 melanoma. Moreover, in the test on SF-539 CNS, the TGI worked out at 35.9 µM.
Regarding `N#CC1(CCCCl)CCCCC1`, the TGI with OVCAR-5 ovarian, in the test on ACHN renal, with HT29 colon, in the test on SNB-19 CNS, in the test on M14 melanoma and in the test on UACC-257 melanoma was above 100 µM each time. This molecule showed a TGI with SF-539 CNS above 100 µM.
Consider `O=C(/C=C(\[O-])c1ccccc1)CCCCCCC(=O)/C=C(\[O-])c1ccccc1.O=C(/C=C(\[O-])c1ccccc1)CCCCCCC(=O)/C=C(\[O-])c1ccccc1.O=C(/C=C(\[O-])c1ccccc1)CCCCCCC(=O)/C=C(\[O-])c1ccccc1.[Y+3].[Y+3]`, for which the GI50 in the test with HOP-62 NSCLC is 18.8 µM; in the test with OVCAR-5 ovarian it was above 50 µM; in the test with ACHN renal it was 40.3 µM; in the test on HT29 colon, above 50 µM; in the test on SNB-19 CNS, 19000 nM; with M14 melanoma, above 50000 nM. In addition, the GI50 in the test with UACC-257 melanoma is 17.6 µM; in the test with SF-539 CNS it was 31.8 µM. In addition, the TGI in the test on HOP-62 NSCLC, in the test on OVCAR-5 ovarian, in the test with ACHN renal, in the test with HT29 colon, with SNB-19 CNS and in the test on M14 melanoma was above 50 µM each time. The TGI with UACC-257 melanoma and in the test with SF-539 CNS was above 50 µM in each case.
